Assay results from patent publication US20230085307A1, “PYRIDAZINONE COMPOUND AND HERBICIDE” (NISSAN CHEMICAL CORPORATION, priority 2019, published 2023).

Tests used:
[1] = test system: barnyard grass; assay: Test Example 3: herbicidal effect by foliage application, Wagner pot (Table 18, symbol H); format: in vivo, barnyard grass (Echinochloa crus-galli); conditions: 320 g/ha
How it was run: (§1)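 Plants were sown in alluvial soil held under 0.1–0.5 cm standing water and grown 14 days in a greenhouse at 25–30 °C. An emulsifiable formulation, water-diluted to the set dose, was then sprayed onto the foliage, and effects were scored three weeks later using previously defined criteria.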

[2] = test system: persian speedwell; assay: Test Example 4: herbicidal effect by soil treatment (Table 19, symbol R); format: in vivo, Persian speedwell (Veronica persica); conditions: amount of applied herbicide 320 g/ha
How it was run: (§2)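 Pre-emergence style soil spray: seeds under ~1.5 cm sterilized diluvial soil received a uniform coat of emulsion diluted to the predetermined herbicide amount. Greenhouse 25–30° C; readout at week three on previously defined criteria.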

[3] = test system: rice flat sedge; assay: Test Example 3: herbicidal effect by foliage application, Wagner pot (Table 18, symbol E); format: in vivo, rice flat sedge (Cyperus iria); conditions: 320 g/ha
How it was run: as §1

[4] = test system: lambsquarters; assay: Test Example 4: herbicidal effect by soil treatment (Table 19, symbol O); format: in vivo, lambsquarters (Chenopodium album); conditions: amount of applied herbicide 320 g/ha
How it was run: as §2

[5] = test system: Chinese sprangletop; assay: Test Example 3: herbicidal effect by foliage application, Wagner pot (Table 18, symbol D); format: in vivo, chinese sprangletop (Leptochloa chinensis); conditions: 320 g/ha
How it was run: as §1

[6] = test system: windgrass; assay: Test Example 5: herbicidal effect by foliage application, plastic box (Table 20, symbol L); format: in vivo, windgrass (Apera spica-venti); conditions: 320 g/ha, foliage application after 14-day growth, evaluated three weeks after application
How it was run: (§3)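 Plants were sown into sterilized diluvial soil under about 1.5 cm cover and kept in a greenhouse at 25° C. to 30° C. Fourteen days on, foliage received an even spray of the diluted emulsion. Herbicidal or crop effect was judged three weeks afterwards.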

[7] = test system: oval-leafed pondweed; assay: Test Example 1: herbicidal activity, application before weed generation under submerged conditions (Table 16, symbol C); format: in vivo, oval-leafed pondweed (Monochoria vaginalis); conditions: amount of applied herbicide 320 g/ha
How it was run: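 Submerged Wagner pots (alluvial soil, 4 cm water) sown with weed seeds and planted with 2.5-leaf rice seedlings; emulsifiable concentrate diluted in water applied to water surface on sowing day. Held in greenhouse at 25-30 °C; injury scored 0-5 by herbicidal rate after three weeks.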

[8] = test system: green foxtail; assay: Test Example 4: herbicidal effect by soil treatment (Table 19, symbol G); format: in vivo, green foxtail (Setaria viridis); conditions: amount of applied herbicide 320 g/ha
How it was run: as §2

[9] = test system: lambsquarters; assay: Test Example 5: herbicidal effect by foliage application, plastic box (Table 20, symbol O); format: in vivo, lambsquarters (Chenopodium album); conditions: 320 g/ha, foliage application after 14-day growth, evaluated three weeks after application
How it was run: as §3

[10] = test system: Italian ryegrass; assay: Test Example 5: herbicidal effect by foliage application, plastic box (Table 20, symbol K); format: in vivo, Italian ryegrass (Lolium multiflorum); conditions: 320 g/ha, foliage application after 14-day growth, evaluated three weeks after application
How it was run: as §3

[11] = test system: velvetleaf; assay: Test Example 5: herbicidal effect by foliage application, plastic box (Table 20, symbol M); format: in vivo, velvetleaf (Abutilon theophrasti); conditions: 320 g/ha, foliage application after 14-day growth, evaluated three weeks after application
How it was run: as §3

[12] = test system: velvetleaf; assay: Test Example 4: herbicidal effect by soil treatment (Table 19, symbol M); format: in vivo, velvetleaf (Abutilon theophrasti); conditions: amount of applied herbicide 320 g/ha
How it was run: as §2

[13] = test system: late watergrass; assay: Test Example 2: herbicidal activity, application during weed generation under submerged conditions (Table 17, symbol A); format: in vivo, late watergrass (Echinochloa oryzicola); conditions: AAH 320 g/ha; application during weed generation, submerged conditions
How it was run: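 Herbicide emulsion, diluted with water to the chosen amount, is applied onto 4 cm floodwater over alluvial soil where the weeds were co-sown and raised at 25–30° C. Application timing: 1–2 leaves. Assessment: three weeks afterwards.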

[14] = test system: chickweed; assay: Test Example 4: herbicidal effect by soil treatment (Table 19, symbol P); format: in vivo, common chickweed (Stellaria media); conditions: amount of applied herbicide 320 g/ha
How it was run: as §2

[15] = test system: southern crabgrass; assay: Test Example 5: herbicidal effect by foliage application, plastic box (Table 20, symbol F); format: in vivo, southern crabgrass (Digitaria ciliaris); conditions: 320 g/ha, foliage application after 14-day growth, evaluated three weeks after application
How it was run: as §3

[16] = test system: persian speedwell; assay: Test Example 5: herbicidal effect by foliage application, plastic box (Table 20, symbol R); format: in vivo, Persian speedwell (Veronica persica); conditions: 320 g/ha, foliage application after 14-day growth, evaluated three weeks after application
How it was run: as §3

[17] = test system: windgrass; assay: Test Example 4: herbicidal effect by soil treatment (Table 19, symbol L); format: in vivo, windgrass (Apera spica-venti); conditions: amount of applied herbicide 320 g/ha
How it was run: as §2

| Compound | herbicidal effect on barnyard grass (H) [1] | Herbicidal effect by soil treatment, R: persian speedwell [2] | herbicidal effect on rice flat sedge (E) [3] | Herbicidal effect by soil treatment, O: lambsquarters [4] | herbicidal effect on Chinese sprangletop (D) [5] | herbicidal effect on L: windgrass (evaluation grade 0-5) [6] | Herbicidal effect, C: oval-leafed pondweed [7] | Herbicidal effect by soil treatment, G: green foxtail [8] | herbicidal effect on O: lambsquarters (evaluation grade 0-5) [9] | herbicidal effect on K: Italian ryegrass (evaluation grade 0-5) [10] | herbicidal effect on M: velvetleaf (evaluation grade 0-5) [11] | Herbicidal effect by soil treatment, M: velvetleaf [12] | herbicidal effect rating, A: late watergrass [13] | Herbicidal effect by soil treatment, P: chickweed [14] | herbicidal effect on F: southern crabgrass (evaluation grade 0-5) [15] | herbicidal effect on R: persian speedwell (evaluation grade 0-5) [16] | Herbicidal effect by soil treatment, L: windgrass [17] |
| --- | --- | --- | --- | --- | --- | --- | --- | --- | --- | --- | --- | --- | --- | --- | --- | --- | --- |
| CCCC(=O)Oc1c(C)nn(C)c(=O)c1-c1c(-c2ccc(OC(F)(F)F)cc2)sc2cc(F)ccc12 [3-144] | 5 (Herbicidal rate of 90% or more (almost completely withered)) | 0 (Herbicidal rate of 5% or less (almost no effect)) | 5 (Herbicidal rate of 90% or more (almost completely withered)) | 3 (Herbicidal rate of 40% or more and less than 70%) | 4 (Herbicidal rate of 70% or more and less than 90%) | 0 (Herbicidal rate of 5% or less (almost no effect)) | 0 (Herbicidal rate of 5% or less (almost no effect)) | 0 (Herbicidal rate of 5% or less (almost no effect)) | 5 (Herbicidal rate of 90% or more (almost completely withered)) | 0 (Herbicidal rate of 5% or less (almost no effect)) | 4 (Herbicidal rate of 70% or more and less than 90%) | 0 (Herbicidal rate of 5% or less (almost no effect)) | 2 (Herbicidal rate of 20% or more and less than 40%) | 0 (Herbicidal rate of 5% or less (almost no effect)) | 1 (Herbicidal rate of 5% or more and less than 20%) | 5 (Herbicidal rate of 90% or more (almost completely withered)) | 0 (Herbicidal rate of 5% or less (almost no effect)) |
| COc1ccc2c(-c3c(OC(=O)C4CCCCC4)c(C)nn(C)c3=O)c(-c3ccccc3OC)sc2c1 [3-156] | 5 (Herbicidal rate of 90% or more (almost completely withered)) | 4 (Herbicidal rate of 70% or more and less than 90%) | 3 (Herbicidal rate of 40% or more and less than 70%) | 0 (Herbicidal rate of 5% or less (almost no effect)) | 4 (Herbicidal rate of 70% or more and less than 90%) | 5 (Herbicidal rate of 90% or more (almost completely withered)) | 4 (Herbicidal rate of 70% or more and less than 90%) | 0 (Herbicidal rate of 5% or less (almost no effect)) | 4 (Herbicidal rate of 70% or more and less than 90%) | 3 (Herbicidal rate of 40% or more and less than 70%) | 5 (Herbicidal rate of 90% or more (almost completely withered)) | 0 (Herbicidal rate of 5% or less (almost no effect)) | 3 (Herbicidal rate of 40% or more and less than 70%) | 3 (Herbicidal rate of 40% or more and less than 70%) | 5 (Herbicidal rate of 90% or more (almost completely withered)) | 5 (Herbicidal rate of 90% or more (almost completely withered)) | 0 (Herbicidal rate of 5% or less (almost no effect)) |
| COc1ccccc1-c1sc2cc(SC)ccc2c1-c1c(O)c(C)nn(C)c1=O [3-163] | 5 (Herbicidal rate of 90% or more (almost completely withered)) | 3 (Herbicidal rate of 40% or more and less than 70%) | 3 (Herbicidal rate of 40% or more and less than 70%) | 3 (Herbicidal rate of 40% or more and less than 70%) | 5 (Herbicidal rate of 90% or more (almost completely withered)) | 5 (Herbicidal rate of 90% or more (almost completely withered)) | 3 (Herbicidal rate of 40% or more and less than 70%) | 3 (Herbicidal rate of 40% or more and less than 70%) | 4 (Herbicidal rate of 70% or more and less than 90%) | 4 (Herbicidal rate of 70% or more and less than 90%) | 5 (Herbicidal rate of 90% or more (almost completely withered)) | 1 (Herbicidal rate of 5% or more and less than 20%) | 3 (Herbicidal rate of 40% or more and less than 70%) | 4 (Herbicidal rate of 70% or more and less than 90%) | 5 (Herbicidal rate of 90% or more (almost completely withered)) | 5 (Herbicidal rate of 90% or more (almost completely withered)) | 3 (Herbicidal rate of 40% or more and less than 70%) |
| CCCOc1ccc(-c2sc3c(F)cccc3c2-c2c(OC(=O)CCC)c(C)nn(C)c2=O)cc1 [4-010] | 5 (Herbicidal rate of 90% or more (almost completely withered)) | 3 (Herbicidal rate of 40% or more and less than 70%) | 5 (Herbicidal rate of 90% or more (almost completely withered)) | 3 (Herbicidal rate of 40% or more and less than 70%) | 4 (Herbicidal rate of 70% or more and less than 90%) | 0 (Herbicidal rate of 5% or less (almost no effect)) | 3 (Herbicidal rate of 40% or more and less than 70%) | 0 (Herbicidal rate of 5% or less (almost no effect)) | 5 (Herbicidal rate of 90% or more (almost completely withered)) | 4 (Herbicidal rate of 70% or more and less than 90%) | 3 (Herbicidal rate of 40% or more and less than 70%) | 0 (Herbicidal rate of 5% or less (almost no effect)) | 4 (Herbicidal rate of 70% or more and less than 90%) | 3 (Herbicidal rate of 40% or more and less than 70%) | 0 (Herbicidal rate of 5% or less (almost no effect)) | 5 (Herbicidal rate of 90% or more (almost completely withered)) | 0 (Herbicidal rate of 5% or less (almost no effect)) |
